Laboratory results as given in patent US10064839B2, “Methods of treating liver diseases” (Zafgen, Inc., priority 2012, dated 2018).

Tested on: diet induced obese mice (C57BL6)
Assay: Diet induced obese mice, 10 days oral 30 mg/kg: body weight and serum cholesterol
Type: in vivo, mouse
Conditions: DIO C57BL6 mice, 30 mg/kg oral gavage; for Cholesterol Change: serum
Procedure: Compounds were tested in diet induced obese mice (C57BL6) that were on a 65% high fat diet for 8-10 weeks. Mice were dosed for 10 days by oral gavage with 30 mg/kg of the compounds listed. Their body weights were recorded along with serum chemistries including cholesterol.

CCN(CC)C/C=C\c1cc(F)ccc1S(=O)(=O)Nc1ccc2c(c1C(=O)O)OCCc1occc1-2
Body Weight Change: −2.1%
Cholesterol Change: No change

CCN(CC)C/C=C\c1cc(F)ccc1S(=O)(=O)Nc1ccc2c(ncc3occc32)c1C(=O)O
Body Weight Change: −16%
Cholesterol Change: No change
